Measured values reported in publication PMC10772362 (RSC Advances, 2024).
“And” between values parts separate entries of the source, which are not always exact repeats. Equal entries are not always repeated.

Assays:
[1] = system: KB (human mouth epidermal carcinoma) cell line; experiment: MTT cytotoxicity assay, KB cells; conditions: for IC50: Homo sapiens, KB, 72 h, read-out: IC50, KB; for Selective index, KB: ratio IC50 in Hek-293 to IC50 in KB
[2] = system: A549 (human lung adenocarcinoma) cell line; experiment: MTT cytotoxicity assay, A549 cells; conditions: for IC50: Homo sapiens, A549, 72 h, read-out: IC50, A549; for Selective index, A549: ratio IC50 in Hek-293 to IC50 in A549
[3] = system: MCF7 (human breast adenocarcinoma) cell line; experiment: MTT cytotoxicity assay, MCF7 cells; conditions: for IC50: Homo sapiens, MCF7, 72 h, read-out: IC50, MCF7; for Selective index, MCF7: ratio IC50 in Hek-293 to IC50 in MCF7
[4] = system: HepG2 (human hepatocellular carcinoma) cell line; experiment: MTT cytotoxicity assay, HepG2 cells; conditions: for IC50: Homo sapiens, HepG2, 72 h, read-out: IC50, HepG2; for Selective index, HepG2: ratio IC50 in Hek-293 to IC50 in HepG2
[5] = system: Hek-293 (human embryonic kidney 293) cell line; experiment: MTT cytotoxicity assay, normal Hek-293 cells; conditions: HEK293, 72 h, read-out: IC50, Hek-293
[6] = system: KB, A549, and HepG2 cell lines; experiment: MTT cytotoxicity assay, summary over KB, A549 and HepG2; conditions: Homo sapiens, read-out: IC50 values ranging over KB, A549, and HepG2 cell lines

Compound	IC50 [1]	Selective index, KB [1]	IC50 [2]	Selective index, A549 [2]	IC50 [3]	Selective index, MCF7 [3]	IC50 [4]	Selective index, HepG2 [4]	IC50 [5]	fold higher toxicity when compared with ellipticine, KB [1]	fold higher toxicity when compared with ellipticine, HepG2 [4]	IC50 [6]
O=C1OCC2=C1C(c1ccsc1)C1=C(N2)C(=O)c2ccccc2C1=O (stereo not drawn) [Compound 13a, 11-(Thiophen-3-yl)-4,11-dihydrobenzo[g]furo[3,4-b]quinolin-1,5,10(3H)-trione]	1.43 ± 0.14 µM	16.00	0.48 ± 0.03 µM	47.90	2.06 ± 0.66 µM	11.12	1.43 ± 0.15 µM	16.00	22.9 ± 2.18 µM	–	–	–
O=C1OCC2=C1C(c1ccoc1)C1=C(N2)C(=O)c2ccccc2C1=O (stereo not drawn) [Compound 13b, 11-(Furan-3-yl)-4,11-dihydrobenzo[g]furo[3,4-b]quinolin-1,5,10(3H)-trione]	10.1 ± 1.17 µM	1.37	3.09 ± 0.39 µM	4.47	12.6 ± 1.14 µM	1.09	12.4 ± 1.29 µM	1.12	13.8 ± 1.41 µM	–	–	–
O=C1OCC2=C1C(c1ccco1)C1=C(N2)C(=O)c2ccccc2C1=O (stereo not drawn) [Compound 13c, 11-(Furan-2-yl)-4,11-dihydrobenzo[g]furo[3,4-b]quinolin-1,5,10(3H)-trione]	14.2 ± 1.23 µM	1.02	3.06 ± 0.27 µM	4.75	12.2 ± 1.14 µM	1.20	3.75 ± 0.69 µM	3.88	14.6 ± 1.35 µM	–	–	–
O=C1OCC2=C1C(c1ccc(Br)o1)C1=C(N2)C(=O)c2ccccc2C1=O (stereo not drawn) [Compound 13d, 11-(5-Bromofuran-2-yl)-4,11-dihydrobenzo[g]furo[3,4-b]quinolin-1,5,10(3H)-trione]	2.81 ± 0.32 µM	13.19	2.06 ± 0.22 µM	18.00	10.4 ± 1.29 µM	3.58	0.3 ± 0.06 µM	122 and 122.40	37.1 ± 3.3 µM	–	–	–
O=C1OCC2=C1C(c1csc3ccccc13)C1=C(N2)C(=O)c2ccccc2C1=O (stereo not drawn) [Compound 13e, 11-(Benzo[b]thiophen-3-yl)-4,11-dihydrobenzo[g]furo[3,4-b]quinolin-1,5,10(3H)-trione]	10.9 ± 1.4 µM	1.02	9.94 ± 0.73 µM	1.12	13.1 ± 1.6 µM	0.85	10.4 ± 1.18 µM	1.07	11.2 ± 0.85 µM	–	–	–
O=C1OCC2=C1C(c1coc3ccccc13)C1=C(N2)C(=O)c2ccccc2C1=O (stereo not drawn) [Compound 13f, 11-(Benzofuran-3-yl)-4,11-dihydrobenzo[g]furo[3,4-b]quinolin-1,5,10(3H)-trione]	1.1 ± 0.09 µM	17.98	7.02 ± 0.91 µM	2.81	12.7 ± 1.2 µM	1.56	1.3 ± 0.13 µM	15.10	19.7 ± 1.7 µM	~1.8 fold	~1.8 fold	–
O=C1OCC2=C1C(c1cc3ccccc3s1)C1=C(N2)C(=O)c2ccccc2C1=O (stereo not drawn) [Compound 13g, 11-(Benzo[b]thiophen-2-yl)-4,11-dihydrobenzo[g]furo[3,4-b]quinolin-1,5,10(3H)-trione]	9.94 ± 0.65 µM	1.31	3.13 ± 0.2 µM	4.18	11.3 ± 1.78 µM	1.16	12.7 ± 1.4 µM	1.03	13.1 ± 1.7 µM	–	–	–
O=C1OCC2=C1C(c1cnc(Cl)s1)C1=C(N2)C(=O)c2ccccc2C1=O (stereo not drawn) [Compound 13h, 11-(2-Chlorothiazol-5-yl)-4,11-dihydrobenzo[g]furo[3,4-b]quinolin-1,5,10(3H)-trione]	1.12 ± 0.1 µM	1.23	0.16 ± 0.02 µM	8.55	1.07 ± 0.1 µM	1.29	0.81 ± 0.11 µM	1.71	1.38 ± 0.18 µM	–	–	–
Cc1c(C2C3=C(COC3=O)NC3=C2C(=O)c2ccccc2C3=O)cnn1C (stereo not drawn) [Compound 13i, 11-(1,5-Dimethyl-1H-pyrazol-4-yl)-4,11-dihydrobenzo[g]furo[3,4-b]quinolin-1,5,10(3H)-trione]	10.7 ± 1.27 µM	1.14	2.27 ± 0.22 µM	5.40	10.4 ± 0.8 µM	1.18	7.8 ± 0.53 µM	1.57	12.3 ± 1.13 µM	–	–	–
O=C1OCC2=C1C(c1ccn[nH]1)C1=C(N2)C(=O)c2ccccc2C1=O (stereo not drawn) [Compound 13j, 11-(1H-pyrazol-5-yl)-4,11-dihydrobenzo[g]furo[3,4-b]quinolin-1,5,10(3H)-trione]	6 ± 0.63 µM	0.63	5.43 ± 0.39 µM	0.69	3.24 ± 0.36 µM	1.16	4.35 ± 0.57 µM	0.86	3.75 ± 0.69 µM	–	–	–
COc1cc(C2C3=C(COC3=O)NC3=C2C(=O)c2ccccc2C3=O)ccn1 (stereo not drawn) [Compound 13k, 11-(2-Methoxypyridin-4-yl)-4,11-dihydrobenzo[g]furo[3,4-b]quinolin-1,5,10(3H)-trione]	0.27 ± 0.24 µM	9.30	0.27 ± 0.21 µM	9.30	1.34 ± 0.16 µM	1.86	0.23 ± 0.02 µM	10.81	2.48 ± 0.32 µM	–	–	0.23 to 0.27 µM
O=C1OCC2=C1C(c1ncccc1F)C1=C(N2)C(=O)c2ccccc2C1=O (stereo not drawn) [Compound 13l, 11-(3-Fluoropyridin-2-yl)-4,11-dihydrobenzo[g]furo[3,4-b]quinolin-1,5,10(3H)-trione]	4.69 ± 0.58 µM	2.18	2.15 ± 0.25 µM	4.74	7.34 ± 0.94 µM	1.39	5.52 ± 0.86 µM	1.85	10.2 ± 1.24 µM	–	–	–
COc1ncc(C(F)(F)F)cc1C1C2=C(COC2=O)NC2=C1C(=O)c1ccccc1C2=O (stereo not drawn) [Compound 13m, 11-(2-Methoxy-5-(trifluoromethyl)pyridin-3-yl)-4,11-dihydrobenzo[g]furo[3,4-b]quinolin-1,5,10(3H)-trione]	4.63 ± 1.04 µM	3.61	2.83 ± 0.54 µM	5.92	7.26 ± 1.29 µM	2.31	5.83 ± 0.86 µM	2.87	16.7 ± 1.94 µM	–	–	–
Cc1c2ccncc2c(C)c2c1[nH]c1ccccc12 [Ellipticine, ellipticine, reference compound]	1.95 ± 0.12 µM	2.88	1.42 ± 0.08 µM	3.94	2.09 ± 0.16 µM	2.68	2.11 ± 0.16 µM	2.65	5.6 ± 0.37 µM	–	–	–
